Reference: paper PMC8658963, “Synthesis and Evaluation of Trypanocidal Activity of Chromane-Type Compounds and Acetophenones” (Molecules, 2021)
Read-outs that look alike come from different tables or passages of the source.

How the values were obtained:
in vitro = details: human, Cytotoxicity (LC50)
Procedure: (§1) Cytotoxicity was evaluated in the human monocyte cell line U-937 (ATCC CRL-1593.2) at the exponential growth phase, adjusted at 1 × 10^5 cells/mL in complete RPMI-1640 medium (RPMI-1640 enriched with 200 mM L-glutamine, 10% inactivated fetal bovine serum (FBS) and 1% of a mixture of 10,000 IU/mL penicillin plus […] streptomycin). Then, in each well of a 96-well tissue culture plate were dispensed […] of cells plus […] of each compound (as one of six serials 1:2 dilution concentrations starting at 368 µM prepared in the same medium). Doxorubicin was included as an internal positive control under the same dilution pattern, starting at 18 µM whereas unexposed cells were used as negative controls. Afterward, cells were incubated for 72 h at 37 °C and 5% CO2. Cell viability was assayed by the MTT reduction assay according to the optical density (O.D) at 570 nm of the resulting reduction of formazan in a Varioskan Flash Multimode Reader (Thermo Scientific, Waltham, MA, USA). Nonspecific absorbance was corrected by subtracting the O.D of the blank solution that corresponded to complete RPMI-1640 medium. The assay was done in triplicate in at least two independent experiments.
(§2) The cytotoxicity was expressed as the medial lethal concentration (LC50), while the trypanocidal activity was defined as the median effective concentration (EC50) according to the percentage of inhibition of cells and parasites, respectively, as described elsewhere. Both LC50 and EC50 were calculated by the Probit analysis. […] Similarly, the trypanocidal activity was graded according to EC50 values, based on the hit criteria proposed by others into high when EC50 was lower than 10 μM, moderate when EC50 values were higher than 10 μM but lower than 50 μM and, low when EC50 was higher than 50 μM. The relation between cytotoxicity and trypanocidal activity was expressed as the index of selectivity (IS) that corresponded to the ratio when dividing the LC50 by the EC50.

[1] = tested on: intracellular amastigotes of T. cruzi (Tulahuen strain transfected with the β-galactosidase gene); test: Anti-trypanosomal activity, β-galactosidase readout in infected U937 macrophages, 72 h; type: cell-based, Trypanosoma cruzi; details: for SI (index of selectivity, IS = LC50/EC50): LC50 in U937 cells divided by EC50 against T. cruzi; for Trypanocidal activity compared with the control drug BNZ / Trypanocidal activity (grade): T. cruzi intracellular amastigotes; for Trypanocidal activity compared with the control drug BNZ: result in words
Procedure: This activity was carried out in intracellular amastigotes of T. cruzi (Tulahuen strain transfected with the β-galactosidase gene. Briefly, metacyclic trypomastigotes were cultured at 26 °C for ten days in a modified NNN (Novy−McNeal−Nicolle) medium. U937 cells were seeded in 96-well tissue culture plates at a density of 2.5 × 10^4 cells in 100 μL of complete RPMI-1640 medium/well and exposed for 24 h to phorbol myristate acetate (1 ng/mL) to induce transformation of monocytes into macrophages. Cells were infected with trypomastigotes (5 parasites per cell) and incubated for 24 h at 37 °C, 5% CO2. Wells were washed twice with warm phosphate buffer solution (PBS) to remove noninternalized parasites, and then were added 100 μL of complete RPMI-1640 medium and 100 μL of each concentration of compound (50, 12.5, 3.125 μM). BNZ, at the same concentrations, was used as internal control for trypanocidal activity (positive control), and nontreated cells as controls for infection (negative control). After 72 h of incubation 37 °C, 5% CO2, the viability of intracellular amastigotes was determined by measuring the β-galactosidase activity. For this, 100 μM of Chlorophenol red-β-D- galactopyranoside (CPRG), and 0.1% Nonidet P-40 was added to each well and incubated for 4 h at 37 °C, […] protected from light. After that, measurement β-galactosidase activity was measured at 570 nm on a Varioskan, Thermo spectrophotometer. Nonspecific absorbance was subtracted from the measurement. Infected cells exposed to benznidazole were used as controls for anti-trypanosomal activity. Determinations were done in triplicate with at least two independent experiments.

[2] = tested on: human monocyte cell line U-937 (ATCC CRL-1593.2); test: Cytotoxic activity, MTT reduction assay, 72 h; details: for Cytotoxicity level (grade): U937 cells, graded by LC50
Procedure: as §1, §2

[3] = Trypanosoma cruzi, TULAHUEN, U-937, 72 h, intracellular amastigotes of T. cruzi Tulahuen in U937 macrophages, 72 h, average ± SD (SEM), read-out: Trypanocidal Activity (EC50)
[4] = Trypanosoma cruzi, TULAHUEN, U-937, T. cruzi intracellular amastigotes, graded by EC50, read-out: Trypanocidal activity (grade)
[5] = Trypanosoma cruzi, TULAHUEN, U-937, 72 h, read-out: Trypanocidal Activity (EC50), intracellular amastigotes of T. cruzi Tulahuen in U937 macrophages, 72 h, average ± SD (SEM)
[6] = Trypanosoma cruzi, TULAHUEN, U-937, read-out: Trypanocidal activity (grade), T. cruzi intracellular amastigotes, graded by EC50
[7] = read-out: Trypanocidal Activity (EC50), intracellular amastigotes of T. cruzi Tulahuen in U937 macrophages, 72 h, average ± SD (SEM)

Row | SMILES | CC50 at 72 h (in vitro) | SI (index of selectivity, IS = LC50/EC50) [1] | EC50 [1, 3] | Trypanocidal activity compared with the control drug BNZ [1] | EC50 [1, 5] | further results
1 | CC(=O)c1ccc(O)cc1O [Compound 5, 1-(2,4-Dihydroxyphenyl)ethan-1-one] | 54 ± 0.5 µM | 3.0 | 17.8 ± 0.8 µM | – | – | –
2 | CC(=O)c1ccc(O)c(O)c1O [Compound 8, 1-(2,3,4-Trihydroxyphenyl)ethan-1-one] | > 200 µM | >10.9 | 18.3 ± 1.1 µM | much better trypanocidal activity than the control drug BNZ | – | EC50 [1, 4]: 10 to 50 µM
3 | CC(=O)c1c(O)cc(O)cc1O [Compound 9, 1-(2,4,6-Trihydroxyphenyl)ethan-1-one] | > 200 µM | >4.1 | 49.3 ± 9 µM | – | – | EC50 [1, 4]: 10 to 50 µM
4 | O=c1ccoc2cc(O)ccc12 [Compound 10, 7-Hydroxy-4H-chromen-4-one] | 23.4 ± 6.4 µM | <2 | > 11.7 µM | – | – | –
5 | O=c1ccoc2ccc(O)cc12 [Compound 11, 6-Hydroxy-4H-chromen-4-one] | 28 ± 1.9 µM | 2.4 | 11.8 ± 0.3 µM | much better trypanocidal activity than the control drug BNZ | – | EC50 [1, 4]: 10 to 50 µM
6 | O=c1ccoc2cccc(O)c12 [Compound 12, 5-Hydroxy-4H-chromen-4-one] | > 100 µM | >5.0 | 19.9 ± 1.3 µM | much better trypanocidal activity than the control drug BNZ | – | EC50 [1, 4]: 10 to 50 µM
7 | O=c1ccoc2c(O)c(O)ccc12 [Compound 13, 7,8-Dihydroxy-4H-chromen-4-one] | 43 ± 0.9 µM | 0.3 | 154 ± 26.8 µM | – | – | Trypanocidal activity (grade) ([1]; graded by EC50): very low
8 | CC(=O)c1cc(CC=C(C)C)c(O)cc1O [Compound 14, 1-(2,4-Dihydroxy-5-(3-methylbut-2-en-1-yl)phenyl)ethan-1-one] | 34 ± 4.9 µM | <2 | – | – | > 17 µM | –
9 | CC(=O)c1ccc(O)c(CC=C(C)C)c1O [Compound 15, 1-(2,4-Dihydroxy-3-(3-methylbut-2-en-1-yl)phenyl)ethan-1-one] | 25.2 ± 4.6 µM | 1.2 | – | – | 20.7 ± 1.1 µM | EC50 [1, 6]: 10 to 50 µM
10 | CC(=O)c1c(O)cc(O)c(CC=C(C)C)c1O [Compound 17, 1-(2,4,6-Trihydroxy-3-(3-methylbut-2-en-1-yl)phenyl)ethan-1-one] | 21.2 ± 6.9 µM | 2.8 | – | – | < 10 µM | EC50 [1, 7]: 7.5 µM
11 | CC(=O)c1cc(CC=C(C)C)c(O)c(O)c1O [Compound 18, 1-(2,3,4-Trihydroxy-5-(3-methylbut-2-en-1-yl)phenyl)ethan-1-one] | < 10 µM | – | – | – | – | Cytotoxicity level (grade) [2]: high (high when LC50 values were lower than 50 μM); CC50 ([2]; human, 72 h): 5 ± 1.7 µM
12 | CC(C)=CCc1cc2c(=O)ccoc2cc1O [Compound 23, 7-Hydroxy-6-(3-methylbut-2-en-1-yl)-4H-chromen-4-one] | > 200 µM | >10 | – | – | > 20 µM | –
13 | CC(C)=CCc1c(O)ccc2c(=O)ccoc12 [Compound 24, 7-Hydroxy-8-(3-methylbut-2-en-1-yl)-4H-chromen-4-one] | > 100 µM | >0.9 | – | – | 111 ± 18.5 µM | Trypanocidal activity (grade) ([1]; graded by EC50): very low
14 | CC(C)=CCc1ccc2occc(=O)c2c1O [Compound 25, 5-Hydroxy-6-(3-methylbut-2-en-1-yl)-4H-chromen-4-one] | – | >5.8 | – | much better trypanocidal activity than the control drug BNZ | 17.3 ± 0.4 µM | Cytotoxicity (LC50) ([2]; human, 72 h): 47.1 ± 5.5 µM; EC50 [1, 6]: 10 to 50 µM
15 | CC(C)=CCc1cc2c(=O)ccoc2c(O)c1O [Compound 26, 7,8-Dihydroxy-6-(3-methylbut-2-en-1-yl)-4H-chromen-4-one] | – | 4.59 | – | much better trypanocidal activity than the control drug BNZ | < 10 µM | Cytotoxicity (LC50) ([2]; human, 72 h): >200 µM; EC50 [1, 7]: 10.3 µM
16 | COCOc1cc(O)c(C(=O)C=Cc2ccc(OC)cc2)cc1CC=C(C)C [Compound 27, 1-(2-Hydroxy-4-(methoxymethoxy)-5-(3-methylbut-2-en-1-yl)phenyl)-3-(4-methoxyphenyl)prop-2-en-1-one] | 43.4 ± 7.3 µM | 1.2 | – | – | 35.3 ± 1.1 µM | EC50 [1, 6]: 10 to 50 µM
17 | COCOc1cc(O)c(C(=O)C=Cc2ccc(Cl)cc2)cc1CC=C(C)C [Compound 28, 3-(4-Chlorophenyl)-1-(2-hydroxy-4-(methoxymethoxy)-5-(3-methylbut-2-en-1-yl)phenyl)prop-2-en-1-one] | – | <2 | – | much better trypanocidal activity than the control drug BNZ | > 0.3 µM | Cytotoxicity level (grade) [2]: high (high when LC50 values were lower than 50 μM)
18 | COCOc1cc2oc(-c3ccc(OC)cc3)cc(=O)c2cc1CC=C(C)C [Compound 29, 7-(Methoxymethoxy)-2-(4-methoxyphenyl)-6-(3-methylbut-2-en-1-yl)-4H-chromen-4-one] | 17 ± 0.2 µM | <2 | – | much better trypanocidal activity than the control drug BNZ | > 9.8 µM | –
19 | COCOc1cc2oc(-c3ccc(Cl)cc3)cc(=O)c2cc1CC=C(C)C [Compound 30, 2-(4-Chlorophenyl)-7-(methoxymethoxy)-6-(3-methylbut-2-en-1-yl)-4H-chromen-4-one] | 27.2 ± 3.3 µM | <2 | – | much better trypanocidal activity than the control drug BNZ | > 13.6 µM | –
20 | COc1cccc2c1C(=O)c1c(O)c3c(c(O)c1C2=O)C[C@@](O)(C(=O)CO)C[C@@H]3O[C@H]1C[C@H](N)[C@H](O)[C@H](C)O1 [DOX, doxorubicin, reference compound] | 0.5 µM | – | – | – | – | –
